# Key:
# Half-life in rat serum = format: in vitro ADME
# chow-fed rats [1] = assay: Counterregulatory response to hindbrain glucoprivation; format: in vivo, rat
# HFD-fed rats = format: in vivo, rat
# rats = assay: Kaolin intake; settings: fourth ICV 20 μg
# chow-fed rats [2] = assay: Telemetry of core body temperature, physical activity and heart rate; settings: lateral ventricle, high dose ODN (100 μg), TDN 20 and 100 μg
# [3] = system: chow-fed and HFD-fed rats; assay: Oral glucose tolerance test; format: in vivo, rat; settings: for Glucose-stimulated plasma insulin: OGTT
# chow-fed rats [4] = format: in vivo, rat
# musk shrew = assay: Food intake, body weight and emesis in musk shrews; format: in vivo, Suncus murinus; settings: intraperitoneal 5 mg/kg; for Food intake in musk shrews: n = 9
# lean and DIO mice = assay: Food intake and body weight after intraperitoneal injection in mice; format: in vivo, mouse
# DIO mice = assay: Hyperinsulinemic-euglycemic clamp in DIO mice; format: in vivo, mouse; settings: single intraperitoneal 5 mg/kg before insulin infusion, vehicle 18%
# [5] = system: chow-fed and HFD-fed rats; assay: Insulin tolerance test; format: in vivo, rat; settings: fourth ICV TDN 200 μg/2 μl
# [6] = HFD-fed rats, lateral ventricle 200 μg/2 μl
# [7] = HFD-fed rats, fourth ICV TDN 200 μg/2 μl
molecule,measurement,setting,value
octadecaneuropeptide [ODN],Half-life in rat serum,"Half-life in rat serum; rat serum, average half-life (fig. S6, I and J)",12.4 min
same,Plasma glucagon after intraperitoneal insulin,"chow-fed rats [1]; fourth ICV ODN 20 μg 15 min before ip insulin 0.75 U/kg, chow-fed rats",lowered plasma glucagon concentrations 30 min after intraperitoneal insulin
same,5-TG-induced hyperglycemia (1-hour blood glucose),"chow-fed rats [1]; lean rats, fourth ICV ODN 20 μg pretreatment before 5-TG 210 μg",blunted 5-TG–induced hyperglycemia 1 hour after injection
same,5-TG-mediated hyperphagia,"chow-fed rats [1]; lean rats, fourth ICV ODN 20 μg/2 μl pretreatment before 5-TG 210 μg",suppressed 5-TG–mediated hyperphagia at the 4-hour time point
same,Circulating free fatty acids after 5-TG,"chow-fed rats [1]; plasma 30 min, fourth ICV ODN 20 μg before 5-TG",suppressed by hindbrain ODN pretreatment
same,24-hour food intake and body weight,"HFD-fed rats; HFD-maintained rats, fourth ICV, 20 μg",decreasing 24-hour food intake and body weight
same,Meal duration 6 to 12 hours postinjection,"HFD-fed rats; HFD-maintained rats, fourth ICV, highest dose (20 μg)",decreased meal duration
same,Kaolin intake,rats,did not cause kaolin intake
same,Telemetry variables at individual hours,chow-fed rats [2],decreased locomotor activity at hour 8
same,Glucose tolerance (OGTT),"[3]; DIO rats, fourth ICV 200 μg",markedly improved
same,OGTT area under the curve,"[3]; lean rats, fourth ICV 200 μg (higher dose)",reduced the overall area under the curve
same,Glucose-stimulated plasma insulin,"[3]; lean rats, fourth ICV 200 μg",without enhancing glucose-stimulated plasma insulin
same,24-hour body weight change,"chow-fed rats [4]; lean chow-fed rats, fourth ICV ODN 0.2, 2 and 20 μg",without affecting 24-hour body weight
same,Time to consume the first bout of food (latency),"chow-fed rats [4]; lean chow-fed rats, fourth ICV, 2 μg",delayed
same,Size of the first meal,"chow-fed rats [4]; lean chow-fed rats, fourth ICV, 20 μg",reduced
same,24-hour body weight change in musk shrews,musk shrew,without affecting body weight at 24 hours
same,Emetic episodes in musk shrews,musk shrew,caused no emetic episodes
same,Food intake in musk shrews,musk shrew,suppressed food intake at 6 and 24 hours after injection
tridecaneuropeptide [TDN],Half-life in rat serum,"Half-life in rat serum; rat, serum",21.2 min
same,24-hour body weight,HFD-fed rats; [6],without an impact on body weight
same,24-hour food intake (HFD),HFD-fed rats; [6],suppressed 24-hour food intake
same,Body weight loss over 9 days,"lean and DIO mice; DIO mice, daily intraperitoneal 5 mg/kg for 9 days",4.7%
same,Daily HFD intake,"lean and DIO mice; DIO mice, daily intraperitoneal 5 mg/kg for 9 days, n = 6",suppressed HFD intake immediately on day 1
same,24-hour food intake and body weight,"lean and DIO mice; lean mice, peripheral administration 5 mg/kg",no effect in lean mice
same,Suppression of endogenous glucose appearance (Ra) relative to baseline,DIO mice,57%
same,OGTT AUC,[3]; [7],lowered the OGTT AUC
same,Glucose-stimulated plasma insulin,[3]; [7],without heightening glucose-stimulated plasma insulin concentrations
same,24-hour body weight change in musk shrews,musk shrew,without altering 24-hour weight change
same,Food intake in musk shrews,musk shrew,suppressed 24-hour food intake
same,Insulin sensitivity during insulin tolerance test,[5],improved by fourth ICV TDN
"O=C[C@H](O)[C@@H](O)[C@H](O)[C@H](S)CO [5-TG, 5-thio-D-glucose]",Food intake after glucoprivic agent,"chow-fed rats [1]; lean rats, fourth ICV 210 μg at dark cycle onset, versus vehicle",increased food intake at 1 and 24 hours after injection
"recombinant DBI protein: recombinant diazepam binding inhibitor protein, parent of ODN (protein, UniProt P07108 2-87, looked up) Acyl-CoA-binding protein: SQAEFEKAAEEVRHLKTKPSDEEMLFIYGHYKQATVGDINTERPGMLDFTGKAKWDAWNELKGTSKEDAMKAYINKVEELKKKYGI",HFD intake,"HFD-fed rats; HFD-maintained rats, fourth ICV 2 μg/2 μl",without affecting HFD intake
same,Chow intake,"chow-fed rats [4]; chow-maintained rats, fourth ICV 2 μg/2 μl",suppressed chow intake at 6 and 12 hours postinjection

# — publication PMC12980401 (Science translational medicine, 2025)
